Measured values from PMC11145269 (Proceedings of the National Academy of Sciences of the …, 2024).
Where two headings read alike, the source gives them in different places. One block for each molecule: values may come before it.

Tests used:
Test in all cases: two-electrode voltage clamp, X. laevis oocytes
Type in all cases: cell-based
[1] = molecular target: T1, NALCN WT channel complex (+UNC79, UNC80, and FAM155A) (Homo sapiens, UniProt Q8IZF0); details: inhibition of outward and inward currents, E/Z isomer mixture, buffer same
T1 construct: codon-optimised human cDNAs in modified pcDNA3.1(+); four mRNAs 1:1:1:1 co-injected in Xenopus laevis oocytes; 7SX3 is the human channelosome structure used for modelling; with Protein unc-79 homolog; Protein unc-80 homolog; NALCN channel auxiliary factor 1

[2] = molecular target: T2, NALCN WT channel complex (+UNC79, UNC80, and FAM155A) (Homo sapiens, UniProt Q8IZF0, L588A/M1145A/W311A/Y1436A)
T2 construct: codon-optimised human cDNAs in modified pcDNA3.1(+); four mRNAs 1:1:1:1 co-injected in Xenopus laevis oocytes; 7SX3 is the human channelosome structure used for modelling; with Protein unc-79 homolog; Protein unc-80 homolog; NALCN channel auxiliary factor 1

[3] = molecular target: T1, NALCN WT channel complex (+UNC79, UNC80, and FAM155A)
[4] = molecular target: T1, NALCN WT channel complex (+UNC79, UNC80, and FAM155A); details: buffer same
[5] = molecular target: T1, NALCN WT channel complex (+UNC79, UNC80, and FAM155A); details: buffer same; remark: listed apart in the source
[6] = molecular target: T3, NALCN WT channel complex (+UNC79, UNC80, and FAM155A) (Homo sapiens, UniProt Q8IZF0, M1145A); details: read-out: % inhibition at 300 μM (-100 mV)
T3 construct: codon-optimised human cDNAs in modified pcDNA3.1(+); four mRNAs 1:1:1:1 co-injected in Xenopus laevis oocytes; 7SX3 is the human channelosome structure used for modelling; with Protein unc-79 homolog; Protein unc-80 homolog; NALCN channel auxiliary factor 1

[7] = read-out: % inhibition at 1 mM (-100 mV)
[8] = read-out: % inhibition at 1 mM (+80 mV)
[9] = outward inhibited more than inward current
[10] = outward current inhibited, inward potentiated

Structure (SMILES): CCC(=C(c1ccc(O)cc1)c1ccc(OCCNC)cc1)c1ccccc1 (mixture of isomers) [(E/Z)-endoxifen]
% inhibition at 100 μM [1]: two (cetirizine and (E/Z)-endoxifen) inhibited both outward and inward currents

inhibition at 1000 µM [2, 7]: 32.9 ± 12.9%
inhibition at 1000 µM [3, 7]: 70.2 ± 8.2%
Structure (SMILES): NCCOB(c1ccccc1)c1ccccc1 [2-APB, 2-aminoethoxydiphenyl borate]

Structure (SMILES): COc1ccccc1CN[C@H]1C2CCN(CC2)[C@H]1C(c1ccccc1)c1ccccc1 [CP96345]
% inhibition at 300 μM ([4]; inhibition of outward current): two selectively inhibited the outward (CP96345) or inward (lamotrigine) currents

inhibition at 1000 µM [3, 8]: 66.9 ± 4%
Structure (SMILES): c1ccc(B(OB(c2ccccc2)c2ccccc2)c2ccccc2)cc1 [DPBA, diphenylborinic anhydride]

inhibition at 1000 µM [3, 8]: 60.3 ± 4.3%
Structure (SMILES): CN(C)CCOC(c1ccccc1)c1ccccc1 [DPH, diphenhydramine]

Structure (SMILES): O=C(O)COCCN1CCN(C(c2ccccc2)c2ccc(Cl)cc2)CC1 (centres unmarked) [cetirizine]
% inhibition at 1 mM ([5]; inhibition of outward and inward currents): two (cetirizine and (E/Z)-endoxifen) inhibited both outward and inward currents

Structure (SMILES): CN(C)CCCC1(c2ccc(F)cc2)OCc2cc(C#N)ccc21 (centres unmarked) [citalopram]
% inhibition at 1 mM [5, 9]: three (hydroxyzine, promethazine, and citalopram) had a stronger inhibitory effect on the outward

Structure (SMILES): COc1ccc([C@@H]2Sc3ccccc3N(CCN(C)C)C(=O)[C@@H]2OC(C)=O)cc1 [diltiazem]
% inhibition at 300 μM [4, 10]: three inhibited the outward and potentiated the inward currents (quinidine, diltiazem, and propafenone)

Structure (SMILES): CC(C)n1c(/C=C/C(O)CC(O)CC(=O)O)c(-c2ccc(F)cc2)c2ccccc21 (centres unmarked) [fluvastatin]
% inhibition at 1 mM ([5]; inhibition of inward current only): one (fluvastatin) had no effect on the outward current, but inhibited the inward current efficaciously

Structure (SMILES): OCCOCCN1CCN(C(c2ccccc2)c2ccc(Cl)cc2)CC1 (centres unmarked) [hydroxyzine]
% inhibition at 1 mM [5, 9]: three (hydroxyzine, promethazine, and citalopram) had a stronger inhibitory effect on the outward

Structure (SMILES): Nc1nnc(-c2cccc(Cl)c2Cl)c(N)n1 [lamotrigine]
% inhibition at 300 μM ([4]; inhibition of inward current): two selectively inhibited the outward (CP96345) or inward (lamotrigine) currents

inhibition at 300 µM ([2]; read-out: % inhibition at 300 μM (-100 mV)): 64.8 ± 6.7%
inhibition at 300 µM [6]: 31 ± 9.2%
Structure (SMILES): O=C1NC(=O)C(c2ccccc2)(c2ccccc2)N1 [phenytoin]

Structure (SMILES): CC(CN1c2ccccc2Sc2ccccc21)N(C)C (centres unmarked) [promethazine]
% inhibition at 1 mM [5, 9]: three (hydroxyzine, promethazine, and citalopram) had a stronger inhibitory effect on the outward

Structure (SMILES): CCCNCC(O)COc1ccccc1C(=O)CCc1ccccc1 (centres unmarked) [propafenone]
% inhibition at 300 μM [4, 10]: three inhibited the outward and potentiated the inward currents (quinidine, diltiazem, and propafenone)

Structure (SMILES): C=C[C@H]1CN2CC[C@H]1C[C@@H]2[C@@H](O)c1ccnc2ccc(OC)cc12 [quinidine]
% inhibition at 300 μM [4, 10]: three inhibited the outward and potentiated the inward currents (quinidine, diltiazem, and propafenone)
